In patent US8293729B2 (Boehringer Ingelheim International GmbH, priority 2009, dated 2012) one finds activation and EC50 data, which are given here for 46 compounds.

The first experiment has as its target T1, human GPR119 receptor (Homo sapiens, UniProt Q8TDV5, S329A/T327A).
T1 construct: N-terminal leader […]; expressed in transfected cells
T1 sequence (Q8TDV5 with tags, fused parts or gaps T327A/S329A): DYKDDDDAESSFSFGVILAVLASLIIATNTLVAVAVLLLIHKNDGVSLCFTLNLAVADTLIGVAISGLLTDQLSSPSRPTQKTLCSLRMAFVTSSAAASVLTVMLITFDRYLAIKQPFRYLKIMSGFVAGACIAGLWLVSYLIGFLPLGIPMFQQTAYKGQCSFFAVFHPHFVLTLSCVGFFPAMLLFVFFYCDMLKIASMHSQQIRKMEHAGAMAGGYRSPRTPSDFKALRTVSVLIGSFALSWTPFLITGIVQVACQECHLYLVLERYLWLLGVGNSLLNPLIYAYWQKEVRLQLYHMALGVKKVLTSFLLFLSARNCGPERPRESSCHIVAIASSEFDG
The experiment can be described thus: cAMP assay (LANCE cAMP-384) in HEK293 cells stably expressing mutant human GPR119 receptor. The class given is cell-based. The note with it: HEK293, 20 min; single concentration 10 μM; given where no EC50 value could be determined; read-out: % stimulation at 10 μM. As for the experimental part: Quantitative detection of cAMP accumulation from cells expressing human GPR119 receptor was achieved using Perkin Elmer's LANCE cAMP-384 Kit (Cat#AD0264) according to the manufacturer's protocol. Briefly, HEK293 cells stably expressing a mutant form of the human GPR119 receptor (Methionine 1 replaced with the amino acid sequence […] (SEQ ID NO: 1), and T327 & S329 changed to alanines) were grown to 50-70% confluency in cell culture media (DMEM, 10% heat inactivated Fetal Bovine Serum, 50 I.U./mL penicillin, 50 μg/mL streptomycin, 10 mM HEPES, 20 μg/mL G418 Sulfate). On the day of the assay, GPR119 stable HEK293 cells were lifted from the tissue culture plate and 1000 cells/well were incubated along with various concentrations of test compounds for 20 min at 37° C. Detection Buffer (50mM HEPES, 10mM calcium chloride, 0.35% Triton X-100, 1 mg/mL BSA) containing cAMP-specific antibody was then added to all wells and allowed to equilibrate in the dark for 10 minutes at room temperature. Upon equilibration, Detection Buffer containing europium-labeled cAMP tracer complex was added to all wells and allowed to react for 1 hour at room temperature. After 1 hour, bound europium-labeled cAMP tracer was measured using a Perkin Elmer ViewLux. The quantity of cAMP generated in each well was derived from a standard curve. EC50 was determined using nonlinear regression analysis of the cAMP values over a range of agonist concentration (12 points spanning the range from 30 μM to 100pM).
For some compounds for which no EC50 value could be determined, the efficacy is provided at a single concentration (10 μM) yielding % stimulation values.
`CNCc1cc(F)c(N2CCC(=NOC3CCN(C(=O)OC(C)C)CC3)CC2)cc1F` [Example 5-6]: the activation at 10 µM is 78%. Consider `COc1cccc(-c2cc(F)c(N3CCC(=NOC4CCN(C(=O)OC(C)C)CC4)CC3)cc2F)n1` [Example 27-11], for which the activation at 10 µM amounted to 80%. With `Cc1cccnc1N1CCC(=NOC2CCN(C(=O)OC(C)C)CC2)CC1` [Example 2-7], the activation at 10 µM came to 55%.

Still in this experiment, the particulars now being: cAMP accumulation, HEK293 cells stably expressing mutant human GPR119; read-out: EC50.
For the compound `CC(C)OC(=O)N1CCC(ON=C2CCN(c3ccc(CO)cc3)CC2)CC1` [Example 2-53], the EC50 is > 10000 nM. On the same count and under the same terms, under `CC(C)OC(=O)N1CCC(ON=C2CCN(c3cc(F)c(-c4cnn(C)c4)cc3F)CC2)CC1` [Example 27-34] stands 126 nM. Still for that read-out and setting: under `CC(C)OC(=O)N1CCC(ON=C2CCN(c3cc(F)c(Cn4cncn4)cc3F)CC2)CC1` [Example 14-18] stands 1350 nM. For `COC(=O)c1nc(Cl)c(N2CCC(=NOC3CCN(C(=O)OC(C)C)CC3)CC2)nc1N` [Example 2-34], the EC50 is > 10000 nM. Turning to `Cc1nc(N2CCC(=NOC3CCN(C(=O)OC(C)C)CC3)CC2)c(F)cc1CO` [Example 55-1, 4-(3′-Fluoro-5′-hydroxymethyl-6′-methyl-2,3,5,6-tetrahydro-[1,2′]bipyridinyl-4-ylideneaminooxy)-piperidine-1-carboxylic acid isopropyl ester], the EC50 is 206 nM. Take `CC(C)OC(=O)N1CCC(ON=C2CCN(c3cc(F)c(-c4ccncc4)cc3F)CC2)CC1` [Example 27-5]: the EC50 was 378 nM. Consider `Cc1cnn(Cc2cc(F)c(N3CCC(=NOC4CCN(C(=O)OC(C)C)CC4)CC3)cc2F)c1` [Example 14-10], for which the EC50 turned out to be 8 nM. In the case of `CCOC(=O)Nc1cc(F)c(N2CCC(=NOC3CCN(C(=O)OC(C)C)CC3)CC2)cc1F` [Example 35-2], the EC50 turned out to be 18 nM. For the compound `CC(C)OC(=O)N1CCC(ON=C2CCN(c3ncc(Br)c(N(C)C)n3)CC2)CC1` [Example 2-54], the EC50 was > 10000 nM.

For `CC(C)OC(=O)N1CCC(ON=C2CCN(c3nc(Cl)ccc3CO)CC2)CC1` [Example 2-27], the EC50 was > 10000 nM. For the compound `CC(C)OC(=O)N1CCC(ON=C2CCN(c3cc(F)c(COC(=O)[C@@H](NC(=O)OC(C)(C)C)C(C)C)cc3F)CC2)CC1` [Example 42-1, 4-{1-[4-((S)-2-tert-Butoxycarbonylamino-3-methyl-butyryloxymethyl)-2,5-difluoro-phenyl]-piperidin-4-ylideneaminooxy}-piperidine-1-carboxylic acid isopropyl ester], the EC50 was found to be 928 nM. Take `CC(C)OC(=O)N1CCC(ON=C2CCN(c3cc(F)c(-c4ncc[nH]4)cc3F)CC2)CC1` [Example 27-22]: the EC50 turned out to be 54 nM. With `CC(C)OC(=O)N1CCC(ON=C2CCN(c3cc(F)c([S+](C)[O-])cc3F)CC2)CC1` (stereo not shown) [Example 43-1, 4-[1-(2,5-Difluoro-4-methanesulfinyl-phenyl)-piperidin-4-ylideneaminooxy]-piperidine-1-carboxylic acid isopropyl ester], the EC50 came out at 58 nM. In the case of `CCNC(=O)NCc1cc(F)c(N2CCC(=NOC3CCN(C(=O)OC(C)C)CC3)CC2)cc1F` [Example 16-1, 4-(1-{4-[(3-Ethyl-ureido)-methyl]-2,5-difluoro-phenyl}-piperidin-4-ylideneaminooxy)-piperidine-1-carboxylic acid isopropyl ester], the EC50 turned out to be 168 nM. Consider `CC(C)OC(=O)N1CCC(ON=C2CCN(c3ncc(Cl)c(Cl)n3)CC2)CC1` [Example 2-50], for which the EC50 is > 10000 nM. In the case of `CC(C)OC(=O)N1CCC(ON=C2CCN(c3cc(Cl)c(F)cc3C(=O)O)CC2)CC1` [Example 2-21], the EC50 was > 10000 nM. `CC(C)OC(=O)N1CCC(ON=C2CCN(c3cc(F)c(CNS(=O)(=O)C(C)C)cc3F)CC2)CC1` [Example 16-5]: the EC50 worked out at 142 nM. As to `CC(C)OC(=O)N1CCC(ON=C2CCN(c3cc4[nH]cnc(=O)c4cc3F)CC2)CC1` [Example 2-61], the EC50 is > 10000 nM. Regarding `CC(C)OC(=O)N1CCC(ON=C2CCN(c3cc(F)c(C#N)cc3F)CC2)CC1` [Example 2-2], the EC50 was determined as 397 nM. Turning to `Cc1nc(C)c(-c2cc(F)c(N3CCC(=NOC4CCN(C(=O)OC(C)C)CC4)CC3)cc2F)s1` [Example 27-25], the EC50 was > 10000 nM.

As to `CC(C)OC(=O)N1CCC(ON=C2CCN(c3cc(F)ccc3C=O)CC2)CC1` [Example 2-19], the EC50 turned out to be 345 nM.

The same experiment, now with this note: the 15th table; read-out: EC50.
Take `CC(C)OC(=O)N1CCC(ON=C2CCN(c3cc(F)c(C(=O)N4CCN(C)CC4)cc3F)CC2)CC1` [Example 29-4]: the EC50 turned out to be 80 nM.

`CC(C)OC(=O)N1CCC(ON=C2CCN(c3cc(F)c(C(=O)N4CCCC[C@H]4CN4CCCC4)cc3F)CC2)CC1` [Example 29-31]: the EC50 amounted to 225 nM.

The experiment is the same for the next values; noted with them: the 19th table; unit inferred; read-out: EC 50.
As to `CCc1cnc(N2CCC(ON=C3CCN(c4cc(F)c(C(=O)N5CCC[C@@H]5CN)cc4F)CC3)CC2)nc1` [Example 29-132], the EC50 was found to be 114 nM. For `CCc1cnc(N2CCC(ON=C3CCN(c4cc(F)c(C(=O)NCC5CCCN5)cc4F)CC3)CC2)nc1` (stereo not shown) [Example 29-122], the EC50 was found to be 176 nM. As for `CCc1cnc(N2CCC(ON=C3CCN(c4cc(F)c(C(=O)NC5CCCNC5)cc4F)CC3)CC2)nc1` (stereo not shown) [Example 29-127], the EC50 is 322 nM. Regarding `CCc1cnc(N2CCC(ON=C3CCN(c4cc(F)c(C(=O)NCC[C@H](N)C(=O)O)cc4F)CC3)CC2)nc1` [Example 29-117], the EC50 amounted to 745 nM.

The same experiment, now with this note: the 32nd table; read-out: EC50.
Consider `CS(=O)(=O)c1ccc(N2CCC(=NOC3CCN(c4cc(C(F)(F)F)ccn4)CC3)CC2)c(F)c1` [Example 63-10], for which the EC50 is > 10000 nM. On the same count and under the same terms, under `CS(=O)(=O)c1ccc(N2CCC(=NOC3CCN(c4ccc(Cl)cn4)CC3)CC2)c(F)c1` [Example 63-24] stands 977 nM.

Staying with this experiment, now noted: the 33rd table; read-out: EC50.
On to `CS(=O)(=O)c1ccc(N2CCC(=NOC3CCN(C(=O)OCCN4CCOCC4)CC3)CC2)c(F)c1` [Example 64-43], for which the EC50 is > 10000 nM. On to `CC(C)(C)CCOC(=O)N1CCC(ON=C2CCN(c3ccc(S(C)(=O)=O)cc3F)CC2)CC1` [Example 64-41], for which the EC50 came to 202 nM. In the case of `CC(C)N(CCOC(=O)N1CCC(ON=C2CCN(c3ccc(S(C)(=O)=O)cc3F)CC2)CC1)C(C)C` [Example 64-32], the EC50 is > 10000 nM.

`CS(=O)(=O)c1ccc(N2CCC(=NOC3CCN(C(=O)OCC4CCC4)CC3)CC2)c(F)c1` [Example 64-6]: the EC50 came out at 36 nM. On to `COC(=O)CC(C)OC(=O)N1CCC(ON=C2CCN(c3ccc(S(C)(=O)=O)cc3F)CC2)CC1` (stereo not shown) [Example 64-22], for which the EC50 was 193 nM.

The experiment is the same for the next values; noted with them: the 34th table, compounds 65-1 to 65-24; read-out: EC50.
On to `CS(=O)(=O)c1ccc(N2CCC(=NOC3CCN(C(=O)OCc4ccccc4)CC3)CC2)c(F)c1` [Example 65-14], for which the EC50 came out at 153 nM.

The same experiment, now with this note: the 36th table, compounds 66-1 to 66-51; read-out: EC50.
For `CS(=O)(=O)c1ccc(N2CCC(=NOC3CCN(Cc4ccccc4C(F)(F)F)CC3)CC2)c(F)c1` [Example 66-29], the EC50 is 1220 nM. `CCOc1ccc(CN2CCC(ON=C3CCN(c4ccc(S(C)(=O)=O)cc4F)CC3)CC2)cc1` [Example 66-46]: the EC50 was determined as 418 nM.

The experiment is the same for the next values; noted with them: the 37th table, compounds 66-52 to 66-64; read-out: EC50.
Take `CCc1ccc(C(C)N2CCC(ON=C3CCN(c4cc(F)c(S(C)(=O)=O)cc4F)CC3)CC2)cc1` (stereo not shown) [Example 66-58]: the EC50 is 72 nM.

Staying with this experiment, now noted: the 43rd table, compounds 75-1 to 75-38; read-out: EC50.
For `CC(C)OC(=O)N1CCC(ON=C2CCN(c3cc(F)c(CC(=O)NC[C@@H]4CCCN4)cc3F)CC2)CC1` [Example 75-10], the EC50 was found to be 203 nM. Regarding `CC(C)OC(=O)N1CCC(ON=C2CCN(c3cc(F)c(CC(=O)NCCN)cc3F)CC2)CC1` [Example 75-24], the EC50 worked out at 410 nM. Regarding `CC(C)OC(=O)N1CCC(ON=C2CCN(c3cc(F)c(CC(=O)N4CC[C@@H](N)C4)cc3F)CC2)CC1` [Example 75-19], the EC50 was determined as 78 nM.

Still in this experiment, the particulars now being: the 44th table, compounds 77-1 to 77-14; read-out: EC50.
Consider `CCc1cnc(N2CCC(ON=C3CCN(c4cc(F)c(CC(=O)N5CC[C@@H](N(C)C)C5)cc4F)CC3)CC2)nc1` [Example 77-6], for which the EC50 turned out to be 9 nM. As for `CCc1cnc(N2CCC(ON=C3CCN(c4cc(F)c(CC(=O)NC5CCN(C)CC5)cc4F)CC3)CC2)nc1` [Example 77-1, 2-(4-{4-[1-(5-ethyl-pyrimidin-2-yl)-piperidin-4-yloxyimino]-piperidin-1-yl}-2,5-difluoro-phenyl)-N-(1-methyl-piperidin-4-yl)-acetamide], the EC50 was 76 nM.
